Measurements taken from US20070197560A1, “cGMP PDE 5 inhibitors for inhalation in the treatment of sexual dysfunction” (priority 1998, published 2007).
Values belong to the compound of their own block, whether it stands above or below them.

Tests used:
[1] = rodent pharmacokinetic model simulating inhalation: intratracheal dry powder blend with lactose; settings: rat
Procedure: (§1) A calculated nominal dose of 8.4 μmol/kg is administered to each of 3 male Wistar:Han rats by administration directly into the trachea via the mouth and vocal chords from a Penn-Century dry powder delivery device actuated via a 2 ml syringe containing air as a propellent.
(§2) A calculated nominal dose of 2.1 μmol/kg is administered to each of 4 male Wistar:Han rats by administration directly into the trachea via the mouth and vocal chords from a Penn-Century dry powder delivery device actuated via a 2 ml syringe containing air as a propellent.
(§3) Each of 3 animals receives a dose equivalent to 2.1 μmol/kg.

[2] = set-up: species or system Male Wistar:Han rats; settings: rat, in vivo, inhaled or intranasal, 2.1 umol/kg, pH 6
Procedure: Male Wistar:Han rats used for this model are supplied by Harlan UK Ltd at 105 days of age and approximately 350 g weight. They are fed ad libitum with a standard laboratory diet and housed under controlled conditions (12 hours light/dark cycle; 20° C.) for at least one week prior to the experiment.
Compound A is dissolved, at a concentration of 1.75 mg/ml in 0.9% saline which has been acidified with 1M aqueous HCI (5 μl), giving a clear solution of pH 5.0. To the solution is added 1M aqueous NaOH (2μl) to increase the pH to 6.0, resulting in a very fine suspension. […] Each animal receives a 2.1 μmol/kg dose in 200 μl of suspension.
The following surgical procedure is used to prepare the animals for the experiment: the animals are anaesthetised, initially with 4% halothane, maintained with 2% halothane, both in a 1:1 oxygen: nitrous oxide mixture carrier. The anaesthetised animals are shaved on their ventral neck and craniodorsal back, then swabbed with a solution of 5% Hibitane in a 70% solution of ethanol in water. […] The patency of the cannula is assessed immediately before experimentation. […]
Withdrawn blood samples are analysed as follows: […]

in vivo = settings: male, Wistar:Han, rat, inhaled or intranasal, 2.1 umol/kg
Procedure: as §1, §2, §3

time to peak plasma concentration (absorption time Tmax) ([1]; citrate salt micronised to less than 5 μM, diluted by weight to 40% in lactose, nominal dose 8.4 μmol/kg, 3 rats): 2 min
Tmax (absorption time; time to maximum concentration in plasma) [2]: 5 min
Structure (SMILES): CCCc1nn(C)c2c(=O)[nH]c(-c3cc(S(=O)(=O)N4CCN(C)CC4)ccc3OCC)nc12 [Compound A, 5-[2-ethoxy-5-(4-methylpiperazinylsulfonyl)phenyl]-1-methyl-3-n-propyl-1,6-dihydro-7H-pyrazolo[4,3-d]pyrimidin-7-one]

Tmax (in vivo): 2 to 20 min
Structure (SMILES): CCOc1cnccc1-c1nc2n(C3CCCC3)[nH]c(CC)c-2c(=O)n1 [Compound C, 1-cyclopentyl-3-ethyl-6-(3-ethoxy-4-pyridyl)-pyrazolo[3,4-d]pyrimidin-4-one]

absorption time T max ([1]; 6% blend with lactose, 2.1 μmol/kg): 10 min
Structure (SMILES): CCCOc1ccc(NS(C)(=O)=O)cc1-c1nc2c(c(C)nn2C)c(=O)[nH]1 [Compound D, 1,3-dimethyl-6-(2-propoxy-5-methanesulfonylamidophenyl)-1,5-dihydropyrazolo[3,4-d]pyrimidin-4-one]
